Assay results reported in patent US11141410B2 (MERCK SHARP & DOHME CORP., priority 2015, dated 2021).

Tests used:
MRSA COL (MB5393) [1] = assay: TarO Inhibitor/β-Lactam Synergy Assay (growth, OD600); type: cell-based, Staphylococcus aureus; settings: for MITC95 TarO inhibitor + 4 μg/mL IPM; Bacteria: SA_MB5393: in combination with 4 μg/mL imipenem (IPM); for MITC95 TarO inhibitor + 8 μg/mL DCX; Bacteria: SA_MB5393: in combination with 8 μg/mL dicloxacillin (DCX)
Summary of the method: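 TarO inhibitors titrated 2-fold from 200 μM (2% DMSO) against MRSA COL, 5×10^5 CFU in CAMHB, with β-lactam fixed at clinical breakpoint (imipenem 4 μg/ml or dicloxacillin 8 μg/ml). Incubated 20 h at 37 °C without shaking; relative growth read as OD600.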

MRSA COL (MB 5393) = assay: In Vivo Murine Systemic Infection Model; set-up: species or system Female Balb/C mice; settings: sc tid; for Bacteria recovered: kidneys 24 h post challenge, neutropenic mice
Description: The murine systemic infection model determines the therapeutic efficacy of TarO inhibitor/β-lactam combinations in vivo. Staphylococci bacteria can cause a systemic infection and establish a robust growth in the kidneys of the infected animal. MRSA COL can establish an infection even in the presence of β-lactam antibiotic due MRSA COL resistance to β-lactam antibiotics.
Female Balb/C mice were rendered neutropenic (immune suppressed) with a single 250 mg/kg intraperitoneal (ip) dose of cyclophosphamide on […]. MRSA COL (MB 5393) was grown for 16 hours in trypticase soy broth (TSB) at 37° C. and 0.5 mL of diluted culture (˜1×10^4 cfu) was administered intraperitoneal (IP). The TarO inhibitor and β-lactam antibiotic were administered alone or in combination by subcutaneous route at 2, 5 and 8 hr. post challenge (sc, tid). Twenty four hours post challenge mice were euthanized and the kidneys harvested, weighed, homogenized and plated to measure the total number of bacteria recovered as colony forming unit (CFU) remaining in compound treated groups as compared to vehicle (saline) or β-lactam antibiotic alone groups (statistical analyses was determined by one way ANOVA).

MRSA COL (MB5393) [2] = assay: TarO Inhibitor/β-Lactam Synergy Assay (growth, OD600); type: cell-based; settings: Staphylococcus aureus, TarO inhibitor alone, >200 μM = 95% growth inhibition not achieved, 20 hours at 37° C., read-out: MITC95 TarO inhibitor alone, Bacteria: SA_MB5393

Structure (SMILES) | MITC95 TarO inhibitor + 4 μg/mL IPM; Bacteria: SA_MB5393 (MRSA COL (MB5393) [1]) | MITC95 TarO inhibitor + 8 μg/mL DCX; Bacteria: SA_MB5393 (MRSA COL (MB5393) [1]) | Fold reduction vs. vehicle alone (MRSA COL (MB 5393); TarO inhibitor alone 50 mg/kg) | Bacteria recovered (MRSA COL (MB 5393); TarO inhibitor alone 50 mg/kg) | IC95 (MRSA COL (MB5393) [2]) | MITC95 concentration of β-lactam antibiotic alone (MRSA COL (MB5393) [1]; β-lactam alone, MRSA COL) | Fold reduction vs. vehicle alone (MRSA COL (MB 5393); Imipenem alone 5 mg/kg) | Bacteria recovered (MRSA COL (MB 5393); Imipenem alone 5 mg/kg)
C[C@H]1[C@@H](c2cccc(C(F)(F)F)c2)OC(=O)N1C(=O)NCc1cncc2ccccc12 [Example 18, (4S,5R)-N-(isoquinolin-4-ylmethyl)-4-methyl-2-oxo-5-[3-(trifluoromethyl)phenyl]-1,3-oxazolidine-3-carboxamide] | 0.23 µM | 1.95 µM | −0.9 | 6.6×10^7 cfu/g kidney | > 200 µM | – | – | –
COc1cccc([C@H]2OC(=O)N(C(=O)CCc3cncc4ccccc34)[C@H]2C)c1 [Example 87, (4S,5R)-3-(3-isoquinolin-4-ylpropanoyl)-5-(3-methoxyphenyl)-4-methyl-1,3-oxazolidin-2-one] | 2.08 µM | 50 µM | – | – | > 200 µM | – | – | –
C[C@H]1[C@@H](c2cc(Br)cc(C(F)(F)F)c2)OC(=O)N1C(=O)CCc1cncc2ccccc12 [Example 88, (4S,5R)-5-[3-bromo-5-(trifluoromethyl)phenyl]-3-(3-isoquinolin-4-ylpropanoyl)-4-methyl-1,3-oxazolidin-2-one] | 1.30 µM | 6.25 µM | – | – | > 200 µM | – | – | –
C[C@H]1[C@@H](c2cc(C(F)(F)F)ccn2)OC(=O)N1C(=O)CCc1cncc2ccccc12 [Example 89, (4S,5S)-3-(3-(isoquinolin-4-yl)propanoyl)-4-methyl-5-(4-(trifluoromethyl)pyridin-2-yl)oxazolidin-2-one] | 6.25 µM | 75 µM | – | – | > 200 µM | – | – | –
Cc1cccc(OCC(=O)N2C(=O)O[C@H](c3cccc(C(F)(F)F)c3)[C@@H]2C)c1C [Example 90, (4S,5R)-3-(2-(2,3-dimethylphenoxy)acetyl)-4-methyl-5-(3-(trifluoromethyl)-phenyl)oxazolidin-2-one] | 0.39 µM | 12.50 µM | – | – | > 200 µM | – | – | –
C[C@H]1[C@@H](c2cc(C(F)(F)F)cc(C(F)(F)F)c2)OC(=O)N1C(=O)COc1cccc2ccccc12 [Example 91, (4S,5R)-5-[3,5-bis(trifluoro-methyl)phenyl]-4-methyl-3-[(naphthalen-1-yloxy)acetyl]-1,3-oxazolidin-2-one] | 0.76 µM | 4.69 µM | – | – | > 200 µM | – | – | –
Cc1ccc2c(n1)N(CCC(=O)N1C(=O)O[C@H](c3cc(F)cc(C(F)(F)F)c3)[C@@H]1C)CCO2 [Example 92, (4S,5R)-5-(3-fluoro-5-(trifluoromethyl)phenyl)-4-methyl-3-(3-(6-methyl-2,3-dihydro-4H-pyrido[3,2-b][1,4]oxazin-4-yl)propanoyl)oxazolidin-2-one] | 0.51 µM | 7.50 µM | – | – | > 200 µM | – | – | –
COc1cc([C@H]2OC(=O)N(C(=O)NCc3cncc4cccnc34)C[C@H]2C)cc(C(F)(F)F)c1 [Example 94, (5R,6S)-6-[3-methoxy-5-(trifluoromethyl)phenyl]-5-methyl-N-(1,6-naphthyridin-8-ylmethyl)-2-oxo-1,3-oxazinane-3-carboxamide] | 3.52 µM | 44 µM | – | – | > 200 µM | – | – | –
C[C@@H]1NN(C(=O)NCc2cncc3ccccc23)C(=O)O[C@@H]1c1cc(F)cc(C(F)(F)F)c1 [Example 95] | 5.21 µM | 4.17 µM | – | – | > 200 µM | – | – | –
COc1cc(C(F)(F)F)nc([C@@H]2OC(=O)N(C(=O)NCc3cncc4ccccc34)[C@H]2C)n1 [Example 96, (4S,5R)—N-(isoquinolin-4-ylmethyl)-5-(4-methoxy-6-(trifluoromethyl)pyrimidin-2-yl)-4-methyl-2-oxooxazolidine-3-carboxamide] | 4.17 µM | 25 µM | – | – | > 200 µM | – | – | –
C[C@H]1[C@@H](c2cc(N3CCC(F)(F)C3)cc(C(F)(F)F)c2)OC(=O)N1C(=O)NCc1cccc2cncnc12 [Example 97, (4S,5R)-5-(3-(3,3-difluoropyrrolidin-1-yl)-5-(trifluoromethyl)phenyl)-4-methyl-2-oxo-N-(quinazolin-8-ylmethyl)oxazolidine-3-carboxamide] | 0.42 µM | 3.32 µM | – | – | > 200 µM | – | – | –
C[C@H]1[C@@H](c2cc(N(C)C)cc(C(F)(F)F)c2)OC(=O)N1C(=O)NCc1cncc2ccccc12 [Example 98, (4S,5R)-5-[3-(dimethylamino)-5-(trifluoromethyl)phenyl]-N-(isoquinolin-4-ylmethyl)-4-methyl-2-oxo-1,3-oxazolidine-3-carboxamide] | 0.01 µM | 0.41 µM | – | – | > 200 µM | – | – | –
O=C(NCc1cncc2ccccc12)N1C(=O)O[C@H](c2cc(F)cc(C(F)(F)F)c2)[C@@H]1CCO [Example 99, (4S,5R)-5-(3-fluoro-5-(trifluoromethyl)phenyl)-4-(2-hydroxyethyl)-N-(isoquinolin-4-ylmethyl)-2-oxooxazolidine-3-carboxamide] | 18.75 µM | 100 µM | – | – | > 200 µM | – | – | –
C[C@H]1[C@@H](c2cc(C(F)(F)F)cc(C(F)(F)F)c2)OC(=O)N1C(=O)/C=C/c1cncc2ccccc12 [Example 100, (4S,5R)-5-(3,5-bis(trifluoromethyl)phenyl)-3-((E)-3-(isoquinolin-4-yl)acryloyl)-4-methyloxazolidin-2-one] | 1.60 µM | – | – | – | > 200 µM | – | – | –
O=C(CCc1cncc2ccccc12)N1C(=O)O[C@H](c2cc(C(F)(F)F)cc(C(F)(F)F)c2)C12CC2 [Example 101, (R)-7-(3,5-bis(trifluoromethyl)phenyl)-4-(3-(isoquinolin-4-yl)propanoyl)-6-oxa-4-azaspiro[2.4]heptan-5-one] | 0.20 µM | – | – | – | > 200 µM | – | – | –
C[C@@H](O)[C@H]1C(=O)N2C(C(=O)O)=C(SCCN=CN)C[C@H]12 [Imipenem, imipenem, reference compound] | – | – | – | – | – | 32 µg/mL | 4.6 | 1.3 × 10^7 cfu/g kidney
